Laboratory results as given in PubChem BioAssay (NCI).
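Method: 48-hour compound exposure of cells in 96-well plates, five concentrations, linear interpolation of endpoints. Abbreviation: GI50, concentration required for 50% inhibition of growth. TGI is the concentration that stops growth completely.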

Tests used:
Test in all cases: DTP human tumour cell line panel, 48 h
SW-620 colon = system: SW-620 colon
KM12 colon = system: KM12 colon
ACHN renal = system: ACHN renal
U251 CNS = system: U251 CNS
HL-60(TB) leukemia = system: HL-60(TB) leukemia
HOP-62 NSCLC = system: HOP-62 NSCLC
OVCAR-4 ovarian = system: OVCAR-4 ovarian
DU-145 prostate = system: DU-145 prostate
SK-MEL-5 melanoma = system: SK-MEL-5 melanoma
T-47D breast = system: T-47D breast

SMILES	TGI (SW-620 colon) [µM]	TGI (KM12 colon) [µM]	TGI (ACHN renal) [µM]	TGI (U251 CNS) [µM]	TGI (HL-60(TB) leukemia) [µM]	TGI (HOP-62 NSCLC) [µM]	TGI (OVCAR-4 ovarian) [µM]	TGI (DU-145 prostate) [µM]	TGI (SK-MEL-5 melanoma) [µM]	TGI (T-47D breast) [µM]	GI50 (DU-145 prostate) [µM]	GI50 (T-47D breast) [µM]	GI50 (SW-620 colon) [µM]	GI50 (ACHN renal) [µM]	GI50 (SK-MEL-5 melanoma) [µM]	GI50 (U251 CNS) [µM]	GI50 (HL-60(TB) leukemia) [µM]	GI50 (HOP-62 NSCLC) [µM]	GI50 (KM12 colon) [µM]	GI50 (OVCAR-4 ovarian) [µM]
CC1CCC2(C)C(CC=C(C=O)C2(O)C=O)C12CO2 (stereo unspecified)	8.77	11.4	3.93	9.37	2.92	40.3	5.2													
Nc1nc(C(=O)O)c(N=Nc2ccccc2)c(=O)[nH]1	> 100	> 100	> 100	> 100	> 100	> 100	> 100	> 100	> 100											
Cc1cc(O)c2c3c(ccc2c1)C(=O)c1c(O)cccc1C3=O	> 100	> 37.8	> 100	> 100		> 100	29.8	> 100	1.4	> 100										
C=CC[N+]1(CC)CCN=C1CCCCCCCCCCCCCCCCC (stereo unspecified)	1.71		2.52	1.47	2.07	1.75		2.02	1.3	1.62	0.659	0.315	0.499	1.19	0.355	0.386	0.562	0.53		
O=C(CO)C1CC2C=CC1C2 (stereo unspecified)	> 100	> 100	> 100	> 100	> 100	> 100	> 100		> 100											
O=C1C(Nc2cccc(O)c2)=C(Sc2ccccc2)C(=O)N1Cc1ccccc1	33.4	28.8	31.6	35.4		28.8	49.6	33.3	17	19.9	16.2	1.84	14.2	12.6	2.37	13		14.8	14	5.33
C=C1C=CC2(Br)OC3CC(C)(Cl)C(Br)CC13C2(C)C (stereo unspecified)	56	58.9	56.2	35.3	33.9	48	> 100		31											
CC(=O)CC(=O)CCC(=O)Nc1cccc(C(F)(F)F)c1	> 100	> 100	> 100	> 100	> 100	> 100	> 100		> 100											
Cc1nnc(N/N=C(/C(=O)C(C#N)c2ccc(Cl)cc2)C(C#N)c2ccc(Cl)cc2)n1N (stereo unspecified)	37.3	39.8	30.8		55.4	30.3	32.9		30.9											
CC(=O)[CH-]C(C)=O.CC(=O)[CH-]C(C)=O.CC(=O)[CH-]C(C)=O.[Ga+3]	> 100	> 100	> 100	> 100			> 100		> 100				> 100	> 100	> 100	> 100			> 100	> 100
Cc1ccc(S(=O)(=O)NC(=O)OC23COCN2COC3)cc1	> 100	> 100	> 100	> 100		> 100	> 100	> 100	> 100	> 100										
c1ccc(-c2csc3ncn4cnnc4c23)cc1	> 100	> 100	> 100	> 100	> 100		> 100		> 100											
N#C/C(=C1\OC(=N)C(c2ccc(Cl)cc2Cl)C1=O)c1ccc(Cl)cc1Cl (stereo unspecified)	> 100		> 100		> 100		> 100		> 100											
CC1CCN(CCOc2ccc(CNc3ccc4nc(CCC5CCCCC5)[nH]c4c3)cc2)CC1	3.35	3.51	3.22	2.85	3.99	3.21	8.18	6.9	3.08		2.52		1.7	1.76	1.7	1.44	1.83	1.68	1.77	2.62
C=C1C(=O)O[C@H]2[C@H]1CC/C(COC(=O)NCc1c[nH]c3ccc(F)cc13)=C\CC[C@@]1(C)O[C@@H]21	2.65	10.3	2.67	5.81		4.56	3.59	2.48	3.11		1.08		0.619	1.36	1.69	2.35		2	3.03	1.52
Clc1ccc([I+]c2ccc(Cl)cc2Cl)c(Cl)c1	3.75	4.47	3.77	3.38	4.58	4.91	4.52	3.51	20.3		1.92		1.25	1.89	6.04	1.77	2.09	2.27	2.13	1.95
CC(C)(C)c1cc(C(=O)O)c2c(c1)C(=O)OC2(c1ccccc1)c1ccccc1C(=O)O (stereo unspecified)	> 100	> 100	> 100		> 100	> 100	> 100	> 100	> 100	> 100	> 100	> 100			> 100					
O=C(c1c(O)cc(O)cc1O)C1Cc2ccccc21 (stereo unspecified)	> 100	> 100	> 100	> 100	> 100	> 100	> 100		> 100											
CC(=O)OCC(CC[CH2][Sn]([Cl])([Cl])[c]1ccccc1)OC(C)=O (stereo unspecified)	30.3	33.2	42.6	38.5	42.6	46.8	31.4		55.5				16.7	23.9	21.5	20.4	16.8	23.9	17.8	16.4
